Experimental data as given in US11406719B2, “Dichromic fluorescent compounds” (Washington University, priority 2008, dated 2022).
Read-outs that look alike come from different tables or passages of the source. Marks after values point to notes of the source that are not given here.

How the values were obtained:
[1] = Fluorescence lifetime by time correlated single photon counting (TCSPC); type: physicochemical; conditions: for Lifetime at 700 nm (ns): excitation 650 nm, emission 700 nm
Description: Fluorescence lifetime (FLT) was measured using time correlated single photon counting (TCSPC) technique with excitation sources NanoLed® (HORIBA Jobin Yvon Inc.) at 700 nm and 773 nm and impulse repetition rate of 1 MHz at 90° to a R928P detector (Hamamatsu Photonics, Japan). The detector was set to either 750 nm (for Nanoled 700 nm) or for 820 nm (for Nanoled 773 nm) with a 20 nm bandpass. The electrical signal was amplified by TB-02 pulse amplifier (HORIBA Jobin Yvon Inc.) and the amplified signal was fed to the constant fraction discriminator CFD (Philips, Netherlands). The first detected photon represented the start signal by the time-to-amplitude converter (TAC) and the excitation pulse triggered the stop signal. The multi-channel analyzer (MCA) recorded repetitive start-stop signals from the TAC and generated a histogram of photons as a function of time-calibrated channels (6.878 ps/channel) until the peak signal reached 10,000 counts. The lifetime was recorded on a 50 ns scale. The instrument response function was obtained by using Rayleigh scatter of Ludox-40 (Sigma-Aldrich, St. Louis, Mo.) (0.03% in Milli-Q water) in a quartz cuvette at either 700 nm or 773 nm emission. DAS6 v6.1 decay analysis software (HORIBA Jobin Yvon Inc.) was used for lifetime calculations. The goodness of fit was judged by χ^2 values and Durbin-Watson parameters and visual observations of fitted line, residuals and autocorrelation function

[2] = DMSO; excitation 773 nm; emission 820 nm; from Berezin et al., 2007; cited from earlier work
[3] = Steady-state absorption and fluorescence properties (spectra, quantum yield, 700/800 nm emission); type: physicochemical; conditions: for fluorescence quantum yield: relative to ICG
Description: The polymethine dyes and their derivatives were dissolved in […] of DMSO as stock solutions. To prevent inner effect in the fluorescent measurements, aliquots […] were diluted with the solvent of interest until the absorbance at the excitation wavelength was 0.15. UV-Vis spectra were obtained on Beckman Coulter DU 640 UV-Vis spectrometer (Beckman Coulter, Inc., Fullerton, Calif.). Emission spectra were recorded on a Fluorolog-3 spectrofluorometer (HORIBA Jobin Yvon Inc., Edison, N.J.).
Fluorescent spectra were recorded by using 620 nm and 720 nm excitation wavelengths. Fluorescent quantum yield was measured at 720 nm with slits width of 5 nm for both excitation and emission. The fluorescence quantum yield of ICG in DMSO (Ψ=0.12) was used as a reference standard. All measurements were conducted at room temperature. Excitation scans were performed in the range of 500-720 nm with monitoring at 735 nm fluorescence intensity, and 600-815 nm with monitoring at 830 nm. Excitation scans were corrected by lamp intensity using the equation F=S/R.
The ratios of the 700 nm and 800 nm emission peaks were examined in different environments and simulated dilute conditions (e.g., binding to albumin). For this, the fluorescence behavior of compound 3 was determined in different solvents (i.e., methanol, water, and DMSO), pH levels (i.e., 2.5 and 10), and in the presence of albumin (which binds the dyes in its drug binding pocket). The spectral analysis was conducted as described above in Example 2. Spectra at pH 2.5 and 10.0 were obtained by titrating 20% DMSO/water solution with diluted aqueous HCl and NaOH.

[4] = cited from earlier work
[5] = In vivo dichromic fluorescence imaging of mouse ears; set-up: species or system nude mouse; conditions: 2 nmol intravenously
Text: To assess the retention of dichromic fluorescence in vivo, 2 nmol of symmetrical ICG (compound 2) and nonsymmetrical cypate-S (compound 3) were each injected intravenously in a nude mouse. Mouse ears were imaged with a Li-Cor Odyssey system at two excitation (680 nm and 780 nm) and emission (700 and 800 nm) channels. […] Thus, the dual fluorescence contrast mechanism is tenable in vivo.

[6] = system: casein kinase II; test: Kinase-Glo Luminescent Kinase Assay; type: cell-based; conditions: A549 cells
Description: The following example was designed to further explore the use of cypate diserine (6) to monitor the activity of endogenous kinases. A549 cells (which express casein kinase II) were incubated with a standard casein kinase II peptide substrate or compound 6 (which is not specific for casein kinase II). Kinase activity was measured with the Kinase-Glo Luminescent Kinase Assay Platform (Promega Corp., Madison, Wis.) per the manufacturer's instructions. This assay measures free ATP in the reaction mixture. As phosphorylation increases, the levels of ATP decrease, and consequently, luminescence is inversely proportional to kinase activity.

[7] = system: A549 cells; test: Two-channel imaging of fluorescence enhancement of A549 cells; type: cell-based, human; conditions: 1 μM
Description: It was hypothesized that since cypate diserine could be phosphorylated in cells, it is possible that the initial phosphorylation of one serine (as indicated by an increase in the 700 nm channel) could be followed by phosphorylation of the second serine. […] To test this notion, A549 cells were incubated with of 1 μM of compound 6.

[8] = target: T1, caspase-3 (Homo sapiens, UniProt P42574); set-up: purchased CalBiochem; conditions: read-out: KM of the standard; cited from earlier work
T1 sequence (P42574 29-175 limits assumed): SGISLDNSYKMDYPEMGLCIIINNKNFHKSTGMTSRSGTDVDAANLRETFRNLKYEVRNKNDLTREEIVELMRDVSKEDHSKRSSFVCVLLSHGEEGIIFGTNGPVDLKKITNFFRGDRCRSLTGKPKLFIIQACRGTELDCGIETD
T1 sequence (P42574 176-277 limits assumed): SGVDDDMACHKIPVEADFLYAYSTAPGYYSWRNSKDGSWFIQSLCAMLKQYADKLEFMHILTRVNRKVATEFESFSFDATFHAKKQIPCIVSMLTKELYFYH

[9] = target: T1, caspase-3; test: In vivo imaging of caspase-3 activity in mouse ears; set-up: species or system nude mouse; conditions: 2 nmol intravenously; caspase-3-injected ear relative to saline-injected ear
Description: To assess the NIR optical imaging of caspase-3 activity, 2 nmol of the pre-quenched (FRET) cypate-DEVD (SEQ ID NO:4) probe was injected intravenously in a nude mouse, followed by intradermal injection of caspase-3 solution (right pinna) or saline (left pinna). This approach provides positive and negative controls in one set of experiments. Mouse ears were imaged with Li-Cor Odyssey single-channel (805 nm) NIR imaging system (Li-Cor Biosciences, Lincoln, Neb.). Images were captured before treatment, after injection of a probe and after intradermal injection of caspase-3 in the ear.

[10] = target: T1, caspase-3; test: Enzyme kinetics of NIR caspase-3 probe; type: biochemical; set-up: purchased CalBiochem; conditions: non-linear fit; 37° C.
Description: To examine the kinetics, a caspase-3 substrate was prepared using the standard FRET method where the tetrapeptide Asp-Glu-Val-Asp (DEVD—SEQ ID NO:4) was flanked by two cypate dyes (cypate-DEVD (SEQ ID NO:4) probe). Enzyme assays were performed with a fluorometer by using commercially available recombinant caspase-3 (CalBiochem). An aliquot of the cypate-DEVD (SEQ ID NO:4) probe (substrate concentrations ranged from 70 nM to 100 μM) was dissolved in DMSO and added to a buffer comprising 10 mM PIPES, pH 7.4, 2 mM EDTA, 0.1% CHAPS, and 5 mM DTT. Five units of the enzyme were added, and the assay was performed at 37° C. A control experiment under the same conditions but with no enzyme was conducted at the same time. The apparent Km for the cypate-DEVD (SEQ ID NO:4) probe for caspase-3 was calculated with the Cheng-Prusoff equation: […], where [S] is the concentration of substrate and Ki is the published inhibitory constant of DEVD (SEQ ID NO:4)-CHO. To generate EC50 values, initial rates were determined from the linear portion of substrate hydrolysis and were plotted against log-inhibitor concentration (DEVD (SEQ ID NO:4)-CHO). The apparent kcat values were calculated using the equation kcat=V(Km+[S])/[Et][S], where [S] is the concentration of substrate, [E] is the concentration of enzyme, and Vis the initial rate of cleavage. […]

## CC1(C)C(/C=C/C=C/C=C/C=C2/N(CCC(=O)O)c3ccc4ccccc4c3C2(C)C)=[N+](CCC(=O)[O-])c2ccc3ccccc3c21 [Compound 1, cypate, reference compound]
[1]; DMSO
  Lifetime at 700 nm (ns): Weak signal
[1]; in DMSO
  fluorescence lifetime at 800 nm: 0.86 ns
[2]
  Lifetime at 800 nm (ns): 0.87^c ns
[3]
  contribution of the 700 nm emission in the overall fluorescence spectra: 18%

## CC1(C)C(/C=C/C=C/C=C/C=C2/N(CCCCS(=O)(=O)O)c3ccc4ccccc4c3C2(C)C)=[N+](CCCCS(=O)(=O)[O-])c2ccc3ccccc3c21 [Compound 2, indocyanine green, reference compound]
[1]; DMSO
  Lifetime at 700 nm (ns): 1.50^d ns
[4]; in DMSO
  fluorescence quantum yield (reference standard): 0.12
[4]; in methanol
  fluorescence quantum yield (reference): 0.090
[2]
  Lifetime at 800 nm (ns): 0.97^c ns
[3]
  contribution of the 700 nm emission in the overall fluorescence spectra: 24%
[5]
  visibility of blood vessels in the 700 and 800 nm channels: showed the blood vessels only at the 800 nm channel

## CC1(C)C(/C=C/C=C/C=C/C=C2\N(CCC(=O)NC(CO)C(=O)O)c3ccc4ccccc4c3C2(C)C)=[N+](CCC(=O)NC(CO)C(=O)O)c2ccc3ccccc3c21 (stereo not drawn) [Compound 6, di-serine cypate]
[6]
  luminescence (inversely proportional to kinase activity): concentration-dependent decreases in luminescence
[3]; methanol
  molar absorption coefficient: about 220,000 M^−1 cm^−1
  ratio of the 700/800 nm emission peaks: 0.36
  fluorescence quantum yield: 0.059
[7]; 5 and 15 minutes
  fluorescence in the 700 nm and 800 nm emission channels: early fluorescence increase in the 700 nm emission channel
[7]; 30 and 45 minutes
  fluorescence in the 700 nm and 800 nm emission channels: fluorescence enhancement in both channels

## CC1(C)C(/C=C/C=C/C=C/C=C2\N(CCC(=O)NC(COP(=O)(O)O)C(=O)O)c3ccc4ccccc4c3C2(C)C)=[N+](CCC(=O)NC(CO)C(=O)O)c2ccc3ccccc3c21 (stereo not drawn) [Compound 7, monophosphoserine/serine cypate derivative]
[3]; methanol
  increase of the 700/800 nm ratio relative to symmetrical compound 6: 7 fold
  molar absorption coefficient: about 220,000 M^−1 cm^−1
  ratio of the 700/800 nm emission peaks: 2.5
  fluorescence quantum yield: 0.057

## Ac-DEVD-pNA [Ac-DEVD (SEQ ID NO:4)-pNA]
[8]
  Km: 11 µM

## cypate-DEVD (SEQ ID NO:4) probe: caspase-3 FRET substrate: tetrapeptide Asp-Glu-Val-Asp flanked by two cypate dyes
[9]
  magnitude and area of increase of fluorescence intensity (805 nm): significantly greater in the caspase-3-injected ear
[10]
  Km: 15 ± 3 µM
  kcat: 1.02 ± 0.06 s⁻¹

## cypate-NH2 [Compound 4]
[1]; DMSO
  Lifetime at 700 nm (ns): 1.40 ns
[1]; DMSO, excitation 773 nm, emission 820 nm
  Lifetime at 800 nm (ns): 0.90 ns
[3]
  contribution of the 700 nm emission in the overall fluorescence spectra: 82%
